Assay results from US20240150719A1, “MAGNETIC SHEAR BIOREACTOR APPARATUS AND METHODS” (THE BOARD OF REGENTS OF THE UNIVERSITY OF TEXAS SYSTEM, priority 2021, published 2024).
“Also recorded” adds a separate entry of the source.

Experiments:
COX2 protein = experiment: Western blot of COX2 protein in fluid shear stressed human MSCs; type: cell-based; conditions: BAY11-7085 10 μM; human MSC, 8 hours of fluid shear stress
Description: FIG. 11 illustrates representative Western blots showing increased intracellular COX2 protein, which is reduced by NF-kB antagonist BAY11-7085 (10 μM).
A pilot study was conducted to provide proof of principle that fluid shear stress can be used to condition stem cells, alter gene expression, and enhance functional activities. To exemplify the conditioning activity of shear stress of the type provided by the present system, but on a much smaller analytical scale, force (shear stress) was applied using custom fabricated slides or IBIDI® small-scale microfluidics channel slides obtained from IBIDI, LLC. (Verona, WI, USA). Human samples were harvested from bone marrow (BM), amniotic fluid (AF), or adipose (AD) tissue, processed for isolation and expansion of hMSC, and stored frozen. […] The number of live cells present was determined using trypan blue dye exclusion. Live cell counts were determined on a hemacytometer and the cells were resuspended to obtain the desired concentration for each assay (see Table 1). […]
Similarly it was determined utilizing commercially available ELISAs that the media from human MSCs cultures that had been subject to fluid shear stress also contained immunomodulatory proteins, such as prostaglandin E2. […]

[1] = system: TNF-α secretion by splenocytes; experiment: TNF-α cytokine suppression assay: MSCs in static co-culture with LPS- or PHA-activated splenocytes; type: cell-based, mouse; conditions: for ability of shear treated MSC to suppress TNF-α production: inhibitor 10 μM, six MSC donor lines, compared to Static Vehicle
Description: FIG. 12 illustrates TNF-αcytokine suppression assays that highlight functional enhancement of MSC immunomodulation. Human MSCs preconditioned by mechanical force (15 dyne/cm2 shear stress for 3 hours) are placed in static co-culture with lipopoly-saccharide (LPS) or phytohaemagglutinin (PHA)-activated splenocytes including macrophages, neutrophils, NK, B, and T cells. […] Lower values correspond to greater anti-inflammatory potency. hBM MSC, human bone marrow MSC; hAF MSC, amniotic fluid MSC; hAD MSC, adipose-derived MSC. P-values calculated by paired t-test, equal variance.
Asterisks indicate p<0.001 compared to Static Vehicle. n=6 indicates six different MSC donor lines included in data shown.
(§1) Similarly it was determined utilizing commercially available ELISAs that the media from human MSCs cultures that had been subject to fluid shear stress also contained immunomodulatory proteins, such as prostaglandin E2. In addition, Western blotting confirmed elevated protein levels (translation) of COX2, TSG6, and IL1RN. Actin protein expression levels, which are constant, were used as a control for baseline protein expression. […] It was also determined that this induction could be abrogated by the addition of 10 uM of the NF-kappa B antagonist BAY11-7085 (FIG. 11). Furthermore by utilizing commercially available ELISAs, it was determined that the media from human MSCs cultures that had been subject to fluid shear stress for as little as 3 hours had immunosuppressive activity, as evidenced by the 10-50% reduction in TNF-α when treated hMSCs were co-cultured with activated immune cells from the spleen (FIG. 12).

human amniotic fluid MSC = experiment: Priming agents combined with shear stress: anti-inflammatory signaling in human amniotic MSC line; type: cell-based
Description: FIG. 14 illustrates that priming agents complement shear-induced anti-inflammatory signaling. Darkened bars represent treatment combinations that indicate a substantial induction of the pathway by shear stress and cytokines (IFN-γ, 20 ng/ml; TNF-α, 50 ng/ml). In this low-performance human amniotic MSC line, TSG6 was induced by shear stress only. IDO was induced by IFN-γ only. hAF MSC, human amniotic fluid MSC.
as §1

## CC(C)(C)c1ccc(S(=O)(=O)/C=C/C#N)cc1 [BAY11-7085]
COX2 protein
  shear-induced intracellular COX2 protein (Western blot): abrogated; also recorded: reduced
[1]
  ability of shear treated MSC to suppress TNF-α production: abrogate the positive effects of shear stress

## COc1ccc2c(c1)c(CC(=O)O)c(C)n2C(=O)c1ccc(Cl)cc1 [Indomethacin]
[1]
  ability of shear treated MSC to suppress TNF-α production: abrogate the positive effects of shear stress

## CS(=O)(=O)Nc1ccc([N+](=O)[O-])cc1OC1CCCCC1 [NS-398]
[1]
  ability of shear treated MSC to suppress TNF-α production: abrogate the positive effects of shear stress

## CCCCC(C)(C)C(O)C=CC1C(O)CC(=O)C1CC=CCCCC(=O)O (stereo not shown) [dmPGE2, 16,16′-dimethyl prostaglandin E2]
[1]; dmPGE2 10 μM
  TNF-α production with ectopic dmPGE2: reduced TNF-α to levels produced in the presence of sheared MSCs; also recorded: mimics MSC suppression

## IFN-γ: cytokine used as priming agent
Human amniotic fluid MSC; IFN-γ 20 ng/ml, low-performance human amniotic MSC line
  IDO induction: induced
Human amniotic fluid MSC; addition of IFN-γ to sheared MSCs versus MSC not subject to shear
  induction of COX2 and HMOX1 in sheared MSCs with added priming agent: greater induction
